Experimental data: PMC9791066, “Investigations into the antibacterial effects and potential mechanism of gambogic acid and neogambogic acid” (Frontiers in Microbiology, 2022)
≈ marks a conversion by molar mass, not a printed value. Like-named read-outs stand apart in the source and are kept apart here.

How the values were obtained:
[1] = system: Escherichia coli ATCC25922; assay: MIC, microtiter broth dilution; type: cell-based; details: Escherichia coli
Description: (§1) Antibacterial activities were performed by examining the minimal inhibitory concentrations (MICs), which was determined by a microtiter broth dilution method as previously described ([Cotsonas King and Wu, 2009]), with minor modifications. Briefly, 96-well plates (Corning) were inoculated with 100 μl of LB broth per well containing 7 × 10^5 CFU/mL bacteria, followed by adding 100 μl of LB broth containing two-fold serial dilutions of the test compounds. […] After 18 h of incubation, the MIC was determined to be the lowest concentration without visible bacterial growth. The results were the averages of at least three biological replicates.

[2] = system: Staphylococcus aureus ATCC29213; assay: MIC, microtiter broth dilution; type: cell-based; details: Staphylococcus aureus
Description: as §1

[3] = system: Enterococcus faecalis ATCC29212; assay: MIC, microtiter broth dilution; type: cell-based; details: Enterococcus faecalis
Description: as §1

[4] = system: Listeria monocytogenes ATCC19117; assay: MIC, microtiter broth dilution; type: cell-based; details: Listeria monocytogenes
Description: as §1

[5] = system: clinical strains of S. aureus, E. faecalis, L. monocytogenes; assay: MIC against clinical isolates; type: cell-based; details: 10 more clinical strains of each species
Description: Enterococcus faecalis ATCC29212 and Staphylococcus aureus ATCC29213 were purchased from the […]. Methicillin-resistant Staphylococcus aureus (MRSA), Listeria monocytogenes ATCC19117, Escherichia coli ATCC25922, Escherichia coli BAS849, DH5α and BL21 were from Lin lab storage. The clinical strains used in this study were isolated and identified from Affiliated Hospital of Nanjing University of Chinese Medicine and Nanjing Drum Tower Hospital, China. All the bacteria strains were routinely cultured in Luria-Bertani (LB) broth media (1% tryptone, 0.5% yeast extract, and 1% NaCl) at 37°C, except as noted.
Antibacterial activities were performed by examining the minimal inhibitory concentrations (MICs), which was determined by a microtiter broth dilution method as previously described ([Cotsonas King and Wu, 2009]), with minor modifications. Briefly, 96-well plates (Corning) were inoculated with 100 μl of LB broth per well containing 7 × 10^5 CFU/mL bacteria, followed by adding 100 μl of LB broth containing two-fold serial dilutions of the test compounds. Tetracycline (Tet) and ampicillin (Amp) and viridicatumtoxins were used as the positive controls. After 18 h of incubation, the MIC was determined to be the lowest concentration without visible bacterial growth. The results were the averages of at least three biological replicates.

EfaUPPS (K47A) = molecular target: T1, EfaUPPS (K47A) (Enterococcus faecalis, UniProt Q831K9, K53A); assay: Microscale thermophoresis binding assay, EfaUPPS K47A
T1 construct: His tag; made in house; host or cells: E. coli BL21(DE3)
T1 sequence (Q831K9 whole entry K53A): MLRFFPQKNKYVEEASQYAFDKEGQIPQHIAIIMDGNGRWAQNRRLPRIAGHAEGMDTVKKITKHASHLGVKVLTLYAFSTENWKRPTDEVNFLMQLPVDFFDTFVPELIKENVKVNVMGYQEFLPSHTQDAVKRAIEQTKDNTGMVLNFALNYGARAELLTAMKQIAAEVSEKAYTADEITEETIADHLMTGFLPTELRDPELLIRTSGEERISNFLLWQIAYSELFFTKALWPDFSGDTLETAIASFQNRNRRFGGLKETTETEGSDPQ
Description: To characterize the binding affinity between EfaUPPS and GA or NGA, the MST binding assay was performed as previously described ([Lin et al., 2020]). In brief, His-tagged EfaUPPS and site-directed mutated EfaUPPS were labeled with the NT- 647-NHS dye using the Monolith NTTM Protein Labeling Kit RED-NHS (NanoTemper Technologies). Two-fold serially diluted GA or NGA was mixed with 10 nM of labeled EfaUPPS or its derivatives in 10 μl of binding buffer (137 mM NaCl, 2.7 mM KCl, 10 mM Na2HPO4, 1.8 mM KH2PO4, and 0.05% Tween-20, pH 7.8), incubated for 15 min, at room temperature. And then, loaded the mixtures into NT.115 premium coated capillaries (NanoTemper Technologies). MST trace signals were collected from the IR laser on to off for about 20 s, under the 5% LED power and high MST power mode. The change of molecular thermophoresis was monitored by standardized fluorescence value Fnorm, and the binding curve was plotted according to the values of Fnorm. The formed complex affinity was analyzed by MO Affinity Analysis software version 2.3. Apparent dissociation constants (Kd) were calculated using nonlinear fitting assuming one specific binding site with the GraphPad Prism 7 software with the following formula: Y = B^∗Max X/KD + X.
(^∗ where BMax is the maximum theoretical specific binding; here BMax = 1).

EfaUPPS (L91A) = molecular target: T2, EfaUPPS (L91A) (Enterococcus faecalis, UniProt Q831K9, L97A); assay: UPPS inhibition assay, EfaUPPS L91A mutant; type: biochemical; details: for effect of mutation on inhibitory effect of compound on EfaUPPS enzyme activity: L91A mutant compared with wild-type; for IC50 fold higher than that of the wild-type: L91A mutant vs wild-type (~3 μM)
T2 construct: His tag; made in house; host or cells: E. coli BL21(DE3)
T2 sequence (Q831K9 whole entry L97A): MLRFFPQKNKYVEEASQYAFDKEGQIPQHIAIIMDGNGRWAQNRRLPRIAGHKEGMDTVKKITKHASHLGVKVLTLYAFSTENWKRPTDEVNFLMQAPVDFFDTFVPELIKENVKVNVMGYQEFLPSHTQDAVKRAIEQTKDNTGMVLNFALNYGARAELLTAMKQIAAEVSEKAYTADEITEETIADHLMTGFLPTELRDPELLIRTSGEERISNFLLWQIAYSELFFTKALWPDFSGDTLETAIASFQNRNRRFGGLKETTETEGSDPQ
Description: The EfaUPPS site-directed mutagenesis was generated using QuikChange site-directed mutagenesis kit (Agilent) according to the manufacturer’s instructions. The purification of site-directed mutation was using a similar strategy as described above.
The UPPS inhibition assay was carried out by measuring the fluorescence of the reaction mixture in a black 96-well microtiter plate (Corning, United States). […] After the indicated incubation period, the reaction was terminated by the addition of 10 μl of 0.5 M EDTA solution. Transferred 50 μl of the reaction mixture into a new 96-well microtiter plate, and quenched with an equal volume of Master Reaction Mix (Pyrophosphate Assay Kit, Sigma-Aldrich, USA) for 30 min. The UPPS inhibitory activity was performed by calculating the fluorescence percentage through determining the fluorescence absorbance of reaction mixture at 316 and 456 nm. Data of UPPS inhibitory activities were plotted versus compound concentrations on a semi-log scale using GraphPad Prism7. All the results were the means of at least three biological replicates.

[6] = system: E. coli BAS849 transformed with pQE80L or pQE80L-EfaUPPS variants; assay: Ex-vivo growth inhibition assay; type: cell-based, Escherichia coli; details: compound at 8 μg/mL
Description: The E. faecalis ATCC29212 undecaprenyl pyrophosphate synthase genes, and the L91A and L146A mutation fragments were cloned into the BamH I and Hind III digested pQE80Lvector, respectively. The resulting plasmids were transformed into E. coli BAS849, respectively. The strain transformed with the empty vector pQE80L was used as a negative control. A single colony of each transformant was inoculated into LB broth supplemented with 100 μg/mL ampicillin and incubated at 200 rpm, 37°C overnight. After diluted the cultures to 7 × 10^5 CFU/mL by LB broth, 5 μl of each diluted cultures were dripped onto a LB agar plate supplemented with IPTG (0.5 mM), and GA or NGA (8 μg/mL) followed by cultivation at 37°C overnight, and then imaged. In the meantime, another 5 μl of each diluted cultures were diluted in 100 ul LB and coated on the relevant plates to check for bacterial CFUs.

[7] = overexpression of wild-type EfaUPPS

SMILES | MIC ([1]; ATCC25922, LB broth, 18 h, read-out: MIC) [µg/mL] | MIC ([2]; ATCC29213, LB broth, 18 h, read-out: MIC) [µg/mL] | MIC ([3]; ATCC29212, LB broth, 18 h, read-out: MIC) [µg/mL] | MIC ([4]; ATCC19117, LB broth, 18 h, read-out: MIC) [µg/mL] | growth inhibitory activity (MICs) against clinical strains [5] | Kd (EfaUPPS (K47A)) [µM] | Kd fold lower than that of the wild-type (EfaUPPS (K47A); K47A vs wild-type) | IC50 (EfaUPPS (L91A)) [µM] | effect of mutation on inhibitory effect of compound on EfaUPPS enzyme activity (EfaUPPS (L91A)) | IC50 fold higher than that of the wild-type (EfaUPPS (L91A)) | growth of E. coli BAS849 ([6]; empty vector pQE80L) | growth of E. coli BAS849 [6, 7] | growth of E. coli BAS849 ([6]; pQE80L-EfaUPPS L91A) | growth of E. coli BAS849 ([6]; pQE80L-EfaUPPS L146A) | MIC ([1]; ATCC25922, 18 h) [µg/mL] | MIC ([2]; ATCC29213, 18 h) [µg/mL] | MIC ([3]; ATCC29212, 18 h) [µg/mL] | MIC ([4]; ATCC19117, 18 h) [µg/mL] | Kd fold higher than that of the wild-type (EfaUPPS (K47A); K47A vs wild-type)
CC(C)=CCC[C@]1(C)C=Cc2c(O)c3c(c(CC=C(C)C)c2O1)O[C@]12C(=C[C@@H]4C[C@H]1C(C)(C)O[C@@]2(C/C=C(/C)C(=O)O)C4=O)C3=O [GA, gambogic acid] | > 64 | 2 (≈ 3.18 µM) | 2 (≈ 3.18 µM) | 4 (≈ 6.36 µM) | high potency in growth inhibitory activity | 4.61 ± 2.62 | about 6 fold | ~30 | significantly decreased | about 10 fold | completely inhibited | rescued the cell growth | moderate resistance | moderate resistance | – | – | – | – | –
CC(C)=CCC[C@]1(C)CC(O)c2c(O)c3c(c(CC=C(C)C)c2O1)O[C@]12C(=C[C@@H]4C[C@H]1C(C)(C)O[C@@]2(C/C=C(/C)C(=O)O)C4=O)C3=O (stereo partly shown) [NGA, neogambogic acid] | – | – | – | – | high potency in growth inhibitory activity | 65.9 ± 25.8 | – | ~30 | significantly reduced | about 10 fold | completely inhibited | rescued the cell growth | moderate resistance | moderate resistance | > 64 | 4 (≈ 6.18 µM) | 2 (≈ 3.09 µM) | 4 (≈ 6.18 µM) | about 10 fold
